According to patent US20080200544A1, “Oil agent and lubricant agent, moisturizer and external preparation composition containing the same” (priority 2007, published 2008):
Where a name gives a salt, the structure may show the parent alone.

Tests used:
[1] = Viscosity, Brookfield viscometer DV-II+ (Spindle No. 2, 12 rpm, 25° C.); type: physicochemical; conditions: for Viscosity: 25° C.; for Feeling of use: class assigned from viscosity at 25° C.
Description: In this specification, “viscosity” refers to a value of viscosity measured using a Brookfield viscometer DV-II+ (Spindle No. 2, 12 rpm, 25° C.).
In these examples, viscosity was measured using a Brookfield viscometer DV-II+ (Spindle No. 2, 12 rpm, 25° C.).

[2] = Water solubility evaluation; conditions: in water
[3] = Oil solubility evaluation in KAK99; conditions: in KAK99 (isononyl isononanoate)

In the case of `CCOCCOCCOC(=O)CCC(=O)OCCOCCOCC` [Example 1, dicarbitol succinate], the Viscosity [1] is reported as 12.5 mPa · s and the Feeling of use [1] is reported as “light”.
In the case of `CCOCCOCCOC(=O)CC(O)C(=O)OCCOCCOCC` (stereo not drawn) [Example 2, dicarbitol malate], the Viscosity [1] is reported as 45 mPa · s, the Water solubility [2] is reported as “◯ (Dissolved in water up to 10% by mass)” and the Oil solubility [3] is reported as “Δ (Dissolved in KAK99 up to 5% by mass)”.
With `CCOCCOCCOC(=O)CCCCC(=O)OCCOCCOCC` [Example 3, dicarbitol adipate] the Viscosity [1] was 20 mPa · s and the Feeling of use [1] was “light”.
Work on `CCOCCOCCOC(=O)C(O)C(O)C(=O)OCCOCCOCC` (stereo not drawn) [Example 4, dicarbitol tartrate] yielded a Viscosity [1] of 207 mPa · s.
With `CCOCCOCCOCCOC(=O)CCC(=O)OCCOCCOCCOCC` [Example 5, di(triethylene glycol monoethyl ether) succinate] the Viscosity [1] was 32.5 mPa · s and the Oil solubility [3] was “Δ (Dissolved in KAK99 up to 5% by mass)”.
For `CCOCCOC(=O)CCC(=O)OCCOCC` [Example 6, di(monoethylene glycol monoethyl ether) succinate], the Viscosity [1] was 10.0 mPa · s, the Feeling of use [1] was “light” and the Water solubility [2] was “Δ (Dissolved in water up to 5% by mass)”.
In the case of “dicarbitol isononanoate [compound 1, reference compound]”, the Viscosity [1] is reported as 5 mPa · s and the Feeling of use [1] is reported as “light”.
